Data reported in US9266829B2, “Quinone compounds and their uses for the treatment of cancer” (Onco-NX Limited, priority 2012, dated 2016).
Values after ≈ are worked out from the molar mass of the structure shown. Values joined by “and” are separate entries in the source; they are usually repeats but may differ in a detail not shown here. Equal values may be shown once. Read-outs that look alike come from different tables or passages of the source.

Columns and labels:
physchem [1] = assay type: physicochemical; conditions: buffer, pH 7
physchem [2] = assay type: physicochemical; conditions: buffer, pH 7.4
Protocol: The stability of esters and their hydrolysis products was measured in solution. (50 μM Es5 in Tris buffer (0.1 mol dm^−3) at pH 7.4). Samples were taken at timed intervals up to 24 hours and analysed by HPLC. The detection wavelength was 330 nm. Chromatographic analysis was carried out by isocratic elution with 30:70 MeOH: Tris buffer (0.1 mol dm^−3, pH 7.4), at 1 ml min^−1. The chromatographic separation of the drug was achieved using a Hypersil ODS column with 250 mm×4.6 mm I.D.

MDA NQ01 = experiment: IC50 by MTT assay on NQ01 cells; assay type: cell-based, human; conditions: for MDA468 to NQ01 differential: ratio of IC50 values
MDA468 = experiment: IC50 by MTT assay on MDA468 cells; assay type: cell-based, human
H460 NSCLC = experiment: In vivo hollow fibre assay, H460; conditions: fibres at s.c. site; i.p. dosing days 3-6; nude mice
Protocol: (§1) The activity of Es5 (4.65) was evaluated in vivo against 3 cancer cell lines H460, MDA-MB-468-NQ01 and MDA-MB-468-MOCK using the in vivo hollow fibre assay (HFA), with fibres implanted at both intraperitoneal (i.p.) and subcutaneous (s.c.) sites. Es5 and the control agent Doxorubicin were administered as multiple doses by intraperitoneal injection (i.p.) on days 3, 4, 5 & 6 at 0.5 mg/kg/day and 2.5 mg/kg/day respectively.
(§2) Three human tumour cell lines were selected for analysis: H460 NSCLC (from ICT) and two breast carcinoma lines MDA-MB-468-NQ01 and MDA-MB-468-MOCK (both supplied by Onco-NX). Cells were cultured in RPMI 1640 cell culture medium supplemented with 1 mM sodium pyruvate, 2 mM L-glutamine and 10% foetal bovine serum (all from Sigma), and maintained as monolayer cultures at 37° C. in a humidified 5% CO2 environment.
(§3) Female Balb/C immunodeficient nude mice aged 6-8 weeks were used (Harlan UK, Blackthorn, UK). Mice were kept in cages housed in isolation cabinets in an air-conditioned room with regular alternating cycles of light and darkness. They received Teklad 2018 diet (Harlan, Blackthorn, UK) and water ad libitum. All animal procedures were carried out under a project licence issued by the UK Home Office and UKCCCR guidelines were followed throughout.
Cells were loaded into sterilised colour-coded PVDF Spectra/Por hollow fibres (HF) (Spectrum Medical Inc, Houston, Tex., USA). Briefly cells were harvested and resuspended in cell culture medium at the required cell density. This preparation was then loaded into the HF and the ends were clamped and heat-sealed. […]
(§4) Mice were sacrificed on day 7 post-implantation, fibres removed, and cell survival analysed using a modified MTT assay, comparing absorbances seen for the treated groups with the corresponding untreated control group. […]

MDA-MB-468-NQ01 = experiment: In vivo hollow fibre assay, MDA-MB-468-NQ01; set-up: species or system mice
Protocol: as §1, §2, §3
Cells were loaded into sterilised colour-coded PVDF Spectra/Por hollow fibres (HF) (Spectrum Medical Inc, Houston, Tex., USA). Briefly cells were harvested and resuspended in cell culture medium at the required cell density. This preparation was then loaded into the HF and the ends were clamped and heat-sealed. The HF was then cut into 1.5 cm lengths which were again heat-sealed at both ends, and then transferred to 6-well plates containing medium before implantation for the in vivo experiments, or were incubated at 37° C. in a humidified 5% CO2 environment for varying times before processing using the modified MTT assay as described below.
For the in vivo experiments, under brief inhalation anaesthesia (2% isoflurane), one loaded hollow fibre for each of the cell lines was transplanted intraperitoneally or subcutaneously on the dorsal flank of each mouse and the mice were allowed to recover. Each group consisted of 6 mice and the implantation day was termed ‘day 0’.
For assessment of the therapeutic response of Es5 (4.65), on days 3, 4, 5 & 6 mice were treated with Es5 (4.65) at 0.5 mg/kg/day or Doxorubicin at 2.5 mg/kg/day.
Mice were sacrificed on day 7 post-implantation, fibres removed, and cell survival analysed using a modified MTT assay, comparing absorbances seen for the treated groups with the corresponding untreated control group. Statistical analysis was carried out using a Student's t-test.

MDA-MB-468-MOCK = experiment: In vivo hollow fibre assay, MDA-MB-468-MOCK; conditions: fibres at s.c. site; i.p. dosing days 3-6; nude mice
Protocol: as §1, §2
as §3, with “All animal procedures were carried out under a project licence issued by the UK Home Office and UKCCCR guidelines were followed throughout.” left out
as §4

recombinant human DTD = recombinant human DTD (Homo sapiens, UniProt P15559); conditions: Beall et al.; Ross et al.; cited from earlier work
[3] = Stability in aqueous and organic solution
[4] = Solubility (aqueous and organic)
MDA468 cells = experiment: Combination index at IC50 with other anti-cancer agents in MDA468 cells; assay type: cell-based, human
NQ01 cells = experiment: Combination index at IC50 with other anti-cancer agents in NQ01 cells; assay type: cell-based, human
[5] = cited from earlier work

recombinant human DTD, sequence (P15559 whole entry): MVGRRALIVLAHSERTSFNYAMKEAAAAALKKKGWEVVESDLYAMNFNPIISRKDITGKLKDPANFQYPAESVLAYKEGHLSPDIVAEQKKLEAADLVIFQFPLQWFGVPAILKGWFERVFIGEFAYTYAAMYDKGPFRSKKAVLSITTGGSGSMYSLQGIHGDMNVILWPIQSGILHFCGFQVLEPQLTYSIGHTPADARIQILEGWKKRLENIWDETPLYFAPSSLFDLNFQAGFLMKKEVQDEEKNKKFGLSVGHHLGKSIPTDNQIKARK

## CC1=C(N2CC2)C(=O)C(COC(=O)C(C)(C)C)=C(N2CC2)C1=O [Compound 4-39]
Physchem [1]
  half-life: < 0.5 h

## CC1=C(N2CC2)C(=O)C(CCCO)=C(N2CC2)C1=O [Compound 4-61, 2,5-Bisaziridin-1-yl-3-(3-hydroxypropyl)-6-methyl-1,4-benzoquinone]
Physchem [2]
  half-life at 50 μM: > 24 h
MDA NQ01; Homo sapiens, MTT assay
  IC50: 0.41 nM
MDA NQ01; IC50 MDA 468 / IC50 MDA NQO1
  DT diaphorase enhancement ratio: 41
MDA NQ01; IC50 values, MTT assay
  selectivity towards cells that express DT-diaphorase: excellent selectivity
MDA468; Homo sapiens
  IC50: 17 nM
Physchem [1]
  half-life at 50 μM: > 24 h

## CC(=O)OCCC1=C(N2CC2)C(=O)C(C)=C(N2CC2)C1=O [Compound 4-70]
Physchem [1]
  half-life: < 1 h

## CC1=C(N2CC2)C(=O)C(CCOC(=O)c2ccccc2)=C(N2CC2)C1=O [Compound 4-71]
Physchem [1]
  half-life: < 1 h

## Nc1ccn([C@@H]2O[C@H](CO)[C@@H](O)[C@@H]2O)c(=O)n1 [Cytosine arabinoside (ARA-C), Cytosine arabinoside]
MDA NQ01; MTT assay
  IC50: 240 nM
MDA468
  IC50: 250 nM

## CC(=O)O[C@@]12CO[C@@H]1C[C@H](O)[C@@]1(C)C(=O)[C@H](O)C3=C(C)[C@@H](OC(=O)[C@H](O)[C@@H](NC(=O)OC(C)(C)C)c4ccccc4)C[C@@](O)([C@@H](OC(=O)c4ccccc4)[C@H]21)C3(C)C [Docetaxel]
MDA NQ01; Homo sapiens, MTT assay
  IC50: 1.88 nM
MDA468; Homo sapiens
  IC50: 1.15 nM

## COc1cccc2c1C(=O)c1c(O)c3c(c(O)c1C2=O)C[C@@](O)(C(=O)CO)C[C@@H]3O[C@H]1C[C@H](N)[C@H](O)[C@H](C)O1 [Doxorubicin, reference compound]
H460 NSCLC
  cell survival compared to the untreated control, H460, s.c. site: did not demonstrate significant efficacy
MDA-MB-468-NQ01; fibres at s.c. site, i.p. dosing days 3-6, nude mice
  cell survival compared to the untreated control, MDA-MB-468-NQ01, s.c. site: did not demonstrate significant efficacy
MDA-MB-468-NQ01; hollow fibre assay
  efficacy in the NQ01-expressing compared to the Mock MDA-MB-468 cell line: little difference
MDA-MB-468-MOCK
  cell survival compared to the untreated control, MDA-MB-468-MOCK, s.c. site: did not demonstrate significant efficacy

## COc1cccc2c1C(=O)c1c(O)c3c(c(O)c1C2=O)C[C@@](O)(C(=O)CO)C[C@@H]3O[C@H]1C[C@H](N)[C@@H](O)[C@H](C)O1 [Epirubicin]
MDA NQ01; Homo sapiens, MTT assay
  IC50: 27.5 nM
MDA468; Homo sapiens
  IC50: 23.2 nM

## CC1=C(N2CC2)C(=O)C(C)=C(N2CC2)C1=O [MeDZQ, 2,5-diaziridinyl-3,6-dimethyl-1,4-benzoquinone]
Recombinant human DTD
  effectiveness as a substrate for recombinant human DTD relative to mitomycin C: more than 150 fold

## CN(Cc1cnc2nc(N)nc(N)c2n1)c1ccc(C(=O)N[C@@H](CCC(=O)O)C(=O)O)cc1 [Methotrexate]
MDA NQ01; Homo sapiens, MTT assay
  IC50: 27 nM
MDA468; Homo sapiens
  IC50: 45 nM

## CO[C@@]12[C@H](COC(N)=O)C3=C(C(=O)C(C)=C(N)C3=O)N1C[C@@H]1N[C@@H]12 [Mitomycin C]
MDA NQ01; MTT assay
  IC50: 10 nM
MDA NQ01
  MDA468 to NQ01 differential: ~5 fold
MDA468
  IC50: 50 nM

## CC1=C(N2CC2)C(=O)C(CO)=C(N2CC2)C1=O [RH1, 2,5-diaziridiny 1-3-(hydroxymethyl)-6-methyl-1,4-benzoquinone]
[3]
  Stability (aqueous): >7 days
[3]; in words
  Stability (organic): months
[4]; DMSO/chloroform
  Solubility (organic): >30 mg/mL
[4]; water
  Solubility (aqueous): 0.5 mg/mL (water) (≈ 2.13 mM)
MDA468 cells; with ARC-C
  Combination index at IC50 with ARC-C in MDA468 cells: 1.45 (slight
MDA468 cells; with Cis-platinum
  Combination index at IC50 with Cis-platinum in MDA468: 0.499 (synergy)
MDA468 cells; with Docetaxel
  Combination index at IC50 with Docetaxel in MDA468 cells: 0.850 (slight
MDA468 cells; with Epirubicin
  Combination index at IC50 with Epirubicin in MDA468 cells: 4.81 (strong
MDA468 cells; with Mitomycin C
  Combination Index at IC50 with Mitomycin C in MDA468 cells: 0.577 (synergy)
MDA468 cells; with cobalt chloride
  Combination index at IC50 with cobalt chloride in MDA468 cells: 0.170 (strong
NQ01 cells; with ARA-C
  Combination index at IC50 with ARA-C in NQ01 cells: 1.22 (slight
NQ01 cells; with Cis-platinum
  Combination index at IC50 with Cis-platinum in MDA NQ01: 0.672 (synergy)
NQ01 cells; with Docetaxel
  Combination index at IC50 with Docetaxel in NQ01 cells: 0.864 (slight
NQ01 cells; with Epirubicin
  Combination index at IC50 with Epirubicin in NQ01 cells: 2.09 (antagonism)
NQ01 cells; with Mitomycin C
  Combination Index at IC50 with Mitomycin C in NQ01 cells: 1.2 (slight
NQ01 cells; with cobalt chloride
  Combination index at IC50 with cobalt chloride in NQ01 cells: 0.80 (moderate
[5]; pH 4.16, from AAPS PharmSciTech 2007
  pH stability, t1/2: t1/2 = 0.07 days
[5]; pH 7.33, from AAPS PharmSciTech 2007
  pH stability, t1/2: t1/2 = 43.52 days
[5]; pH 9.82, nearest comparison from AAPS PharmSciTech 2007, 8 (1) Article 16
  pH stability, t1/2: t1/2 = 0.96 days
MDA NQ01; MTT assay
  IC50: 0.12 nM
MDA NQ01
  MDA468 to NQ01 differential: > 30 fold
MDA468
  IC50: 4.41 nM and 3.5 nM
Temperature stability; 4 C.
  Temperature stability, t90: 4 C. t90 >7 days
Temperature stability; 40 C.
  Temperature stability, t90: 40 C. t90 2 days
Temperature stability; 55 C.
  Temperature stability, t1/2: 55 C. t1/2 2 days
Temperature stability; Ambient
  Temperature stability, t90: Ambient t90 3 days

## CC[C@]1(O)C[C@@H]2CN(CCc3c([nH]c4ccccc34)[C@@](C(=O)OC)(c3cc4c(cc3OC)N(C)[C@H]3[C@@](O)(C(=O)OC)[C@H](OC(C)=O)[C@]5(CC)C=CCN6CC[C@]43[C@@H]65)C2)C1 [Vinblastine]
MDA NQ01; Homo sapiens, MTT assay
  IC50: 18.3 nM
MDA468; Homo sapiens
  IC50: 16 nM
